# Data: patent publication US7297505B2, “Use of MDCK cell line to predict corneal penetration of drugs” (Alcon, Inc., priority 2004, dated 2007)
# Experiments:
# cornea = assay: Predicted corneal permeability from MDCK permeability by statistical model; conditions: Corneal Permeability=5.41(MDCK Permeability)−0.01(MDCK Permeability)^2; in nm/s
# Description: The method of the present invention comprises the following steps: (1) determining the MDCK permeation value for a drug molecule; and (2) entering said value in a suitable linear or quadratic statistical model to calculate a predicted corneal permeability value for said molecule. The statistical model is created by obtaining MDCK permeation values and corneal penetration values for at least two representative drug molecules, plotting those values on a graph and deriving a linear or quadratic statistical model from the graph.
# [1] = Ex vivo corneal penetration (perfusion chamber); type: in vitro ADME; conditions: rabbit; Table 2; read-out: Ex vivo Rabbit Corneal Permeability, Papp nm/s
# Description: The intact eyes, along with the lids and conjunctival sacs were then enucleated and immediately stored in about 70 ml of fresh BSS PLUS® Sterile Irrigating Solution (Alcon Laboratories, Inc.) saturated with O2/CO2 (95:5). Within one hour, corneas were mounted in the modified perfusion chamber as described by Schoenwald and Huang (G1). BSS PLUS® solution was used as the receiving and rinsing solution throughout the perfusion experiments. Steady-state conditions were used in order to determine the apparent permeability coefficients. After mounting the corneas in the chamber, 7.5 mls of BSS PLUS® solution was added to the receiving chamber (endothelial side of the cornea). Then, 7 mls of 0.1 mMole solutions of each fluoroquinolone prepared in BSS PLUS® solution was added into the donor chamber (epithelial side of the cornea). Throughout the experiment, both solutions were bubbled continuously with O2/CO2 (95:5) at the rate of about one bubble per second. This provides mixing of the solution in each chamber, oxygenation of the cornea, and pH control. Samples (0.15 ml) were withdrawn from the receiving chamber at 30 min intervals over a period of five hours. BSS PLUS® solution (0.15 ml) was added back to the receiving chamber after each withdrawal to compensate for loss of volume.
# At the end of each permeability experiment, The final volume of the receiving chambers was noted, and the viability of the corneas was assessed by determining their hydration level: The corneas were trimmed of excess scleral tissue and conjunctiva, blotted, weighed, dried overnight at room temperature under vacuum over phosphorus pentoxide, and then re-weighed.
# C is the steady state measured concentration of […] in the donor solution in units of μg/ml or ppm; and 60 is the conversion of minutes to seconds.
# MDCK(MDR) monolayers = assay: in vitro; conditions: MDCK-MDR1
# Description: (§1) The present invention is directed to the use of a new in vitro model for evaluating the ability of a drug molecule to penetrate the cornea. The model involves the use of MDCK cell permeability values to predict the ability of drug molecules to penetrate the cornea. The MDCK permeability values of drug molecules can be determined by means of known methods, such as the methods described in the following scientific articles: • 1. Horio, M, Pastan, I, Gottesman, M M, and Handler, J S. Transepithelial transport of vinblastine by kidney-derived cell lines. Application of a new kinetic model to estimate in situ Km of the pump. […] Pan, B F, Dutt, A, and Nelson, J A. Enhanced transepithelial flux of cimetidine by Madin-Darby canine kidney cells overexpressing human P-glycoprotein. […] The entire contents of the above-cited references relating to methods for determining MDCK permeation values for drug molecules are hereby incorporated in the present specification by reference. […] Various commercial scientific laboratories may be utilized to obtain MDCK permeation values (e.g., Absorption Systems, Exton, Pa., USA).
# (§2) In vitro MDCK cell permeability. Permeability and transport studies were conducted and the data were analyzed at Absorption Systems, Exton, Pa., using methods previously described.^12,13 MDCK(MDR) monolayers were grown to confluence on collagen-coated, microporous, polycarbonate membranes in 12-well Costar Transwell plates. To ensure monolayer integrity, the trans epithelial electrical resistance (TEER) was measured. […] The permeability assay buffer was Hank's Balanced Salt Solution containing 10 mM HEPES and 15 mM glucose at a pH of 7.0-7.2. Permeability through a cell-free (blank) membrane was studied to determine non-specific binding and free diffusion of the test article through the device. […] At each time point, 1 and 2 hours, a 200-μL aliquot was taken from the receiver chamber and replaced with fresh assay buffer. Cells were dosed on the apical side [apical-to-basolateral, absorptive transport, […]] or basolateral side [basolateral-to-apical, secretory transport, (B-A)] and incubated at 37° C. with 5% CO2 and 90% relative humidity. Each determination was performed in duplicate. Lucifer Yellow permeability was measured for each monolayer after the experiment, to ensure that the cell monolayer integrity and viability was not compromised by the test article.
# (§3) To determine the transport of compounds in the absence of functional P-gp activity, the above experimental conditions were used but in the presence of the P-gp inhibitor cyclosporin A (CSA).^14 For the studies using CSA, cells were pre-incubated for 30 minutes with the inhibitor (10 μM) and washed; during the permeation determination period CSA (10 μM) was present on both sides of the membrane. The Papp A-B determined in the presence of CSA was taken as an estimate of the permeability attributed to passive diffusion for the compound (Papp PD).
# P-gp (MDR1) = assay: in vitro; conditions: dog, MDCK-MDR1
# Description: as §1, §2, §3
Predicted Corneal Permeability (cornea),"Papp at 5 h, 0.1 mMole [1]",MDCK^2 (MDCK(MDR) monolayers),Papp at 10 μM (P-gp (MDR1)),Post experiment Lucifer Yellow permeability in monolayers (MDCK(MDR) monolayers),Compound
33.83,16 ×10⁻⁶ cm/s,43.56,0.66 ×10⁻⁶ cm/s,,O=C1OC2(c3ccc(O)cc3Oc3cc(O)ccc32)c2ccccc21 [Fluorescein]
177.99,9.8 ×10⁻⁶ cm/s,1354.24,3.68 ×10⁻⁶ cm/s,,CC[C@@H]1C(=O)OC[C@@H]1Cc1cncn1C [Pilocarpine]
625.74,74 ×10⁻⁶ cm/s,32761,18.1 ×10⁻⁶ cm/s,,NC(=O)Cc1cccc(C(=O)c2ccccc2)c1N [Nepafenac]
164.91,24 ×10⁻⁶ cm/s,1149.21,3.39 ×10⁻⁶ cm/s,,CC(C)(C)NC[C@H](O)COc1nsnc1N1CCOCC1 [Timolol]
,,1428.84,,,C[C@@H]1C[C@H]2[C@@H]3CCC4=CC(=O)C=C[C@]4(C)[C@@]3(F)[C@@H](O)C[C@]2(C)[C@@]1(O)C(=O)CO [Dexamethasone]
,,,,0.24-0.75 ×10^−6 cm/s,Lucifer Yellow

Compound,Predicted Corneal Permeability (cornea),"Papp at 5 h, 0.1 mMole [1]",MDCK^2 (MDCK(MDR) monolayers),Papp at 10 μM (P-gp (MDR1)),Post experiment Lucifer Yellow permeability in monolayers (MDCK(MDR) monolayers)
CC(C)NCC(O)COc1ccc(CCOCC2CC2)cc1 (stereo not drawn) [Betaxolol],657.76,60 ×10⁻⁶ cm/s,40804,20.2 ×10⁻⁶ cm/s,
Nc1cc(Cl)c(N=C2NCCN2)c(Cl)c1 [Apraclonidine],19.58,3.8 ×10⁻⁶ cm/s,14.44,0.38 ×10⁻⁶ cm/s,
O=C1CC2(CCCC2)CC(=O)N1CCCCN1CCN(c2ncccn2)CC1 [Buspirone],675.82,66.5 ×10⁻⁶ cm/s,105625,32.5 ×10⁻⁶ cm/s,
